Assay: xn = mol fraction of the nth substance listed
Details: Liquid, Vibrating tube method

CCCCCCCCCC [decane] + CCCCCCC
Details	mass density [kg/m3]
353.08 K, 19000 kPa, x2 = 0.777	668.89
353.08 K, 20000 kPa, x2 = 0.5219	683.14
353.08 K, 20000 kPa, x2 = 0.777	669.88
353.08 K, 21000 kPa, x2 = 0.5219	684.06
353.08 K, 21000 kPa, x2 = 0.777	670.85
353.08 K, 22000 kPa, x2 = 0.5219	684.96
353.08 K, 22000 kPa, x2 = 0.777	671.79
353.08 K, 23000 kPa, x2 = 0.5219	685.84
353.08 K, 23000 kPa, x2 = 0.777	672.72
353.08 K, 24000 kPa, x2 = 0.5219	686.7
353.08 K, 24000 kPa, x2 = 0.777	673.63
353.08 K, 25000 kPa, x2 = 0.5219	687.54
353.08 K, 25000 kPa, x2 = 0.777	674.52
353.09 K, 1000 kPa, x2 = 0.2594	674.78
353.09 K, 2000 kPa, x2 = 0.2594	675.91
353.09 K, 3000 kPa, x2 = 0.2594	677.03
353.09 K, 4000 kPa, x2 = 0.2594	678.12
353.09 K, 5000 kPa, x2 = 0.2594	679.23
353.09 K, 6000 kPa, x2 = 0.2594	680.3
353.09 K, 7000 kPa, x2 = 0.2594	681.37
353.09 K, 8000 kPa, x2 = 0.2594	682.43
353.09 K, 9000 kPa, x2 = 0.2594	683.51
353.09 K, 10000 kPa, x2 = 0.2594	684.56
353.09 K, 11000 kPa, x2 = 0.2594	685.6
353.09 K, 12000 kPa, x2 = 0.2594	686.61
353.09 K, 13000 kPa, x2 = 0.2594	687.61
353.09 K, 14000 kPa, x2 = 0.2594	688.6
353.09 K, 15000 kPa, x2 = 0.2594	689.58
353.09 K, 16000 kPa, x2 = 0.2594	690.55
353.09 K, 17000 kPa, x2 = 0.2594	691.5
353.09 K, 18000 kPa, x2 = 0.2594	692.42
353.09 K, 19000 kPa, x2 = 0.2594	693.33
353.09 K, 20000 kPa, x2 = 0.2594	694.24
353.09 K, 21000 kPa, x2 = 0.2594	695.13
353.09 K, 22000 kPa, x2 = 0.2594	695.95
353.09 K, 23000 kPa, x2 = 0.2594	696.8
353.09 K, 24000 kPa, x2 = 0.2594	697.62
353.09 K, 25000 kPa, x2 = 0.2594	698.42
353.12 K, 1000 kPa, x2 = 0.952	636.17
353.12 K, 2000 kPa, x2 = 0.952	637.58
353.12 K, 3000 kPa, x2 = 0.952	638.96
353.12 K, 4000 kPa, x2 = 0.952	640.34
353.12 K, 5000 kPa, x2 = 0.952	641.71
353.12 K, 6000 kPa, x2 = 0.952	643.05
353.12 K, 7000 kPa, x2 = 0.952	644.36
353.12 K, 8000 kPa, x2 = 0.952	645.65
353.12 K, 9000 kPa, x2 = 0.952	646.91
353.12 K, 10000 kPa, x2 = 0.952	648.14
353.12 K, 11000 kPa, x2 = 0.952	649.36
353.12 K, 12000 kPa, x2 = 0.952	650.55
353.12 K, 13000 kPa, x2 = 0.952	651.72
353.12 K, 14000 kPa, x2 = 0.952	652.87
353.12 K, 15000 kPa, x2 = 0.952	654
353.12 K, 16000 kPa, x2 = 0.952	655.12
353.12 K, 17000 kPa, x2 = 0.952	656.22
353.12 K, 18000 kPa, x2 = 0.952	657.29
353.12 K, 19000 kPa, x2 = 0.952	658.35
353.12 K, 20000 kPa, x2 = 0.952	659.4
353.12 K, 21000 kPa, x2 = 0.952	660.42
353.12 K, 22000 kPa, x2 = 0.952	661.43
353.12 K, 23000 kPa, x2 = 0.952	662.41
353.12 K, 24000 kPa, x2 = 0.952	663.35
353.12 K, 25000 kPa, x2 = 0.952	664.3
363.02 K, 1000 kPa, x2 = 0.5219	654.13
363.02 K, 1000 kPa, x2 = 0.777	639
363.02 K, 2000 kPa, x2 = 0.5219	655.44
363.02 K, 2000 kPa, x2 = 0.777	640.47
363.02 K, 3000 kPa, x2 = 0.5219	656.74
363.02 K, 3000 kPa, x2 = 0.777	641.89
363.02 K, 4000 kPa, x2 = 0.5219	657.94
363.02 K, 4000 kPa, x2 = 0.777	643.28
363.02 K, 5000 kPa, x2 = 0.5219	659.19
363.02 K, 5000 kPa, x2 = 0.777	644.65
363.02 K, 6000 kPa, x2 = 0.5219	660.44
363.02 K, 6000 kPa, x2 = 0.777	646
363.02 K, 7000 kPa, x2 = 0.5219	661.67
363.02 K, 7000 kPa, x2 = 0.777	647.32
363.02 K, 8000 kPa, x2 = 0.5219	662.86
363.02 K, 8000 kPa, x2 = 0.777	648.61
363.02 K, 9000 kPa, x2 = 0.5219	664.05
363.02 K, 9000 kPa, x2 = 0.777	649.89
363.02 K, 10000 kPa, x2 = 0.5219	665.24
363.02 K, 10000 kPa, x2 = 0.777	651.15
363.02 K, 11000 kPa, x2 = 0.5219	666.41
363.02 K, 11000 kPa, x2 = 0.777	652.39
363.02 K, 12000 kPa, x2 = 0.5219	667.56
363.02 K, 12000 kPa, x2 = 0.777	653.61
363.02 K, 13000 kPa, x2 = 0.5219	668.7
363.02 K, 13000 kPa, x2 = 0.777	654.81
363.02 K, 14000 kPa, x2 = 0.5219	669.81
363.02 K, 14000 kPa, x2 = 0.777	655.99
363.02 K, 15000 kPa, x2 = 0.5219	670.91
363.02 K, 15000 kPa, x2 = 0.777	657.15
363.02 K, 16000 kPa, x2 = 0.5219	671.98
